Assay results: patent US8354128B2, “Blackberry leaf extract as an active ingredient against skin irritations and inflammations” (Symrise AG, priority 2005, dated 2013)

System: IL-1 alpha biosynthesis in human skin cells (HaCaT keratinocytes)
Assay: Anti-interleukin-1alpha assay: IL-1 alpha biosynthesis in A23187-stimulated HaCaT keratinocytes, ELISA of cell lysate
Format: cell-based
Conditions: vs stimulated control (0.2 μM A23187, 6 h)
Experimental: Since interleukin-1 alpha (IL-1 alpha) is a central inflammatory mediator in the skin, the inhibiting effect of the blackberry leaf extract on IL-1 alpha biosynthesis in human skin cells (HaCaT keratinocytes) was investigated. The cells are disseminated in a 96-well microtitre plate (MTP) on the previous day. On the day of the experiment, the test substance solutions are applied in medium in three different concentrations as a triple determination and incubated for 60 min at 37° C. and 5% CO2. Cellular IL-1 alpha biosynthesis is then stimulated by the addition of 0.2 μM A23187 calcium ionophore and the solutions are incubated for a further 6 h. The supernatant is drawn off and the cells undergo lysis through the addition of 1% Triton X 100. The IL-1 alpha in the cell lysate is quantified in an ELISA (human IL-1 alpha ELISA kit, EH2IL1A, Endogen).
The results set out below were obtained from two independent experiments. IL-1 alpha inhibition was calculated in comparison to the stimulated control.

Question: With `C[C@@H]1C[C@H]2[C@@H]3CCC4=CC(=O)C=C[C@]4(C)[C@@]3(F)[C@@H](O)C[C@]2(C)[C@@]1(O)C(=O)CO` [Dexamethasone] as the molecule, how does the inhibition at 0.01 µM (0.01 μM dexamethasone) read?
Answer: The inhibition at 0.01 µM was 28.8%.

Question: And the inhibition at 0.1 µM (0.1 μM dexamethasone)?
Answer: The inhibition at 0.1 µM was 37.7%.

Question: What about the inhibition at 1 µM (1 μM dexamethasone) of the same molecule?
Answer: Its inhibition at 1 µM is 44.7%.
